In patent publication US20250283037A1, “METHODS FOR STIMULATING AND TRANSDUCING T CELLS” (Juno Therapeutics GmbH, priority 2021, published 2025):

Tests used:
mTOR = experiment: Intracellular S6 phosphorylation in engineered T cells; type: cell-based, human; conditions: 1 μM (also printed 1 mM) during production; live CD8+ T cells
Experimental: CD4+ and CD8+ T cells were isolated by immunoaffinity-based enrichment from leukapheresis samples from human donor subjects. […] The T cells cultured with our without Compound 63 were incubated overnight (approximately 24 hr) at 37° C., and were then transduced in serum-free culture media with our without Compound 63 ([…]) with a lentiviral vector encoding an anti-CD19 CAR. […] Following transduction, the cells were incubated in serum free media without recombinant cytokines (basal media) and with or without Compound 63 (1 mM) and allowed to incubate at about 37.0° C. in an incubator for up to 96 hours after initiation of the stimulation with the anti-CD3/anti-CD28 oligomeric stimulatory reagent (until day 5 of the process). […] Following incubation CD4+ and CD8+ T cells from each donor were harvested, formulated, and cryofrozen. The cryofrozen engineered CD4+ and CD8+ T cells were thawed, and T cells were assessed for intracellular S6 phosphorylation, a ribosomal protein and marker of mTOR inhibition, and co-stained for surface expression of CD4 or CD8 and for CCR7 and CD45RA as markers of memory subsets. pS6 expression in live CD8+ T cells by memory subsets was shown by the expression of CCR7 and CD45RA as shown in FIG. 16A.

CD4+ and CD8+ T cells [1] = experiment: Viability and live cell count of engineered T cell composition; type: cell-based, human; conditions: with vs without compound during production
CAR-T cells = experiment: Intracellular caspase expression in thawed CAR-T cells; type: cell-based, human; conditions: vs cells not incubated with compound
Experimental: (§1) CD4+ and CD8+ T cells were isolated by immunoaffinity-based enrichment from leukapheresis samples from human donor subjects. At day 1, isolated CD4+ and CD8+ T cells were mixed 1:1 and stimulated with an anti-CD3/anti-CD28 oligomeric stimulatory reagent generated as described in Example 1 in serum-free media supplemented with recombinant IL-2 (100 IU/mL), recombinant IL-7 (600 IU/mL), and recombinant IL-15 (100 IU/mL) with or without 1 μM of 2-(3-hydroxyphenyl)-9-(2-isopropylphenyl)-8-oxo-8,9-dihydro-7H-purine-6-carboxamide (Compound 63). The T cells cultured with our without Compound 63 were incubated overnight (approximately 24 hr) at 37° C., and were then transduced in serum-free culture media with our without Compound 63 ([…]) with a lentiviral vector encoding an anti-CD19 CAR. The CAR contained an scFv antigen-binding domain specific for CD19 (derived from FMC63), a CD28 transmembrane region, a 4-1BB costimulatory signaling region, and a CD3-zeta derived intracellular signaling domain. Following transduction, the cells were incubated in serum free media without recombinant cytokines (basal media) and with or without Compound 63 (1 mM) and allowed to incubate at about 37.0° C. in an incubator for up to 96 hours after initiation of the stimulation with the anti-CD3/anti-CD28 oligomeric stimulatory reagent (until day 5 of the process). […]

[2] = tested on: CD8+ T cells and CD4+ T cells; experiment: CD27/CCR7 phenotypic subset profile by flow cytometry; type: cell-based, human
Experimental: as §1

CD4+ and CD8+ T cells [3] = experiment: Intracellular cytokines after PMA/Ionomycin and Golgi inhibitor; type: cell-based, human; conditions: PMA/Ionomycin stimulation; engineered CD8+ and CD4+ T cells
Experimental: as §1

anti-CD19 CAR T cells = experiment: Long-term stimulation with anti-idiotype antibody beads, expansion and survival; type: cell-based, human; conditions: 12 days, anti-ID antibody beads
Experimental: as §1, with “domain.” for “domain. Following transduction, the cells were incubated in serum free media without recombinant cytokines (basal media) and with or without Compound 63 (1 mM) and allowed to incubate at about 37.0° C. in an incubator for up to 96 hours after initiation of the stimulation with the anti-CD3/anti-CD28 oligomeric stimulatory reagent (until day 5 of the process).”
To further assess the functional activity of the cells, the generated T cell compositions were stimulated long-term over 12 days with beads conjugated with an anti-idiotype (ID) antibody against the anti-CD19 CAR, and expansion and survival of the cells were monitored (FIG. 17F, left panel) and total expansion metric calculated by area under the growth curve (FIG. 17F, right panel, AUC).

[4] = target: T1, mutein streptavidin designated Strep-tactin® (e.g. containing the sequence set forth in SEQ ID NO: 4) (Streptomyces avidinii, UniProt P22629, E68V/S69T/V71R); conditions: general statement in the description, no experiment described; read-out: binding affinity KD for Strep-tactin®; cited from earlier work
T1 construct: N-terminal methionine in place of Ala13 (N)
T1 sequence (P22629 other isoform, or with tags, fused parts or gaps E68V/S69T/V71R): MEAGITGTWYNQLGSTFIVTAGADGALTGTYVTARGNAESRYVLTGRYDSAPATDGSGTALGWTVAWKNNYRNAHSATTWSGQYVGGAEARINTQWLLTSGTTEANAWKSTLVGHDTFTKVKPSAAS

| Molecule | pS6 mean fluorescence intensity of memory T cell subsets (Temra, Tem, Tcm) (mTOR) | percentage of viable cells over time (CD4+ and CD8+ T cells [1]) | total number of viable cells over time (CD4+ and CD8+ T cells [1]) | intracellular caspase expression (CAR-T cells) | phenotypic subset profile by CD27 and/or CCR7 expression [2] | level of intracellular cytokines IL2, IFNg, or TNF (CD4+ and CD8+ T cells [3]) | function (expansion, AUC) following long-term CAR-specific stimulation (anti-CD19 CAR T cells) | Kd [4] [nM] |
| --- | --- | --- | --- | --- | --- | --- | --- | --- |
| CC(C)c1ccccc1-n1c(=O)[nH]c2c(C(N)=O)nc(-c3cccc(O)c3)nc21 [Compound 63, 2-(3-hydroxyphenyl)-9-(2-isopropylphenyl)-8-oxo-8,9-dihydro-7H-purine-6-carboxamide] | decreased | no significant effect | no significant effect | less | did not substantially alter | substantially improved | improved function |  |
| WSHPQFEK [Strep-tag® II] |  |  |  |  |  |  |  | ~1000 |
